As usually defined, the MIC is the lowest concentration that inhibits growth of the organism. A lower MIC goes with a more susceptible organism.

Converted amounts (≈) assume the structure as drawn. The source made the active and inactive calls. The rule behind the calls is not given here.

Consider three molecules from ChEMBL document CHEMBL1151480, “Endiandric Acid Analogues from the Roots of Beilschmiedia erythrophloia” (2009).

Assay [1] has as its system Mycobacterium tuberculosis. The assay is described as follows: Antitubercular activity against Mycobacterium tuberculosis H37Rv after 2 weeks by proportion method. The format is functional. The settings on record: 336 h.
Assay [2] concerns P388. The assay is described as follows: Growth inhibition of mouse P388 cells. The format is functional, cell-based.

With `COC(=O)[C@@H]1C=C[C@@H]2C[C@H]3[C@H](CCCCCCCc4ccccc4)[C@H]4C=C[C@@H]1[C@@H]2[C@H]43` [ERYTHROPHLOIN C], the minimal inhibitory concentration (MIC) in assay [1] amounted to 50 µg/mL (≈ 124 µM). In assay [1], `CC[C@@H](CO)NCCN[C@@H](CC)CO` [ETHAMBUTOL] had an MIC of 6.25 µg/mL (≈ 30.6 µM). For the molecule `C=C1CC[C@H]2O[C@]2(C)[C@H](O)C[C@@H]2[C@@H]1CC2(C)C` [SUBEROSOL B], in assay [2], the “growth inhibition (GI)” value was “Active”. For the same molecule, it took 28.9 µg/mL (≈ 122 µM) to inhibit growth in assay [1] (MIC).
